Data reported in publication PMC11252418, “Specific glycine-dependent enzyme motion determines the potency of conformation selective inhibitors of threonyl-tRNA synthetase” (Communications Biology, 2024).
“And” between values parts separate entries of the source, which are not always exact repeats. Equal entries are not always repeated. Where two headings read alike, the source gives them in different places.

Assays:
EcThrRS_G463A [1] = biological target: T1, EcThrRS_G463A (Escherichia coli, UniProt P0A8M3, G463A); experiment: Thermal shift assay (TSA); type: binding
T1 construct: The E. coli ThrRS (residues 242-642, Supplementary Note 1) wild type; 6xHis (C); made in house; host or cells: E. coli BL21 (DE3)
Method: (§1) The EcThrRS_WT and L489M/G463S/G463S_Q484A/G463A/A316N mutant proteins, ObaO_WT and ObaO_S464G mutant proteins were prepared at 2 μM in buffer containing 25 mM Tris-HCl pH 7.5, 200 mM NaCl, and 20 μM OB (GlpBio, US) or BN (GlpBio, US) or ddH2O in equal volumes since the compounds were diluted with ddH2O to 1 mM as stocks. […] SYPRO orange dye (Sigma, USA) was diluted in assay buffer containing 25 mM Tris-HCl pH 7.5 and 200 mM NaCl to a 40× concentration, and was added to the mixture to a final 4× concentration. Aliquots (20 μL) were added to a 96-well PCR plate. After complete mixing, the final solutions were heated from 25 to 95 °C at a rate of 0.015 °C/s, and fluorescence signals were monitored by QuantStudio 3 (Applied Biosystems by Thermo Fisher Scientific, USA). The melting temperature (Tm) was calculated through a previously established method[56],[57].

EcThrRS_G463S [2] = biological target: T2, EcThrRS_G463S (Escherichia coli, UniProt P0A8M3, G463S); experiment: Thermal shift assay (TSA); type: binding
T2 construct: The E. coli ThrRS (residues 242-642, Supplementary Note 1) wild type; 6xHis (C); made in house; host or cells: E. coli BL21 (DE3)
Method: as §1

EcThrRS_G463A [3] = biological target: T1, EcThrRS_G463A; experiment: ATP hydrolysis assay; type: biochemical; details: for ATP hydrolysis activity, inhibitory curve data point: BN, replicates, sheet Fig.7d
Method: (§2) 200 nM EcThrRS wide type and mutants, ObaO and ObaO_S464G mutant were incubated with serially diluted OB (0 to 10 μM for EcThrRS, 0 to 40 μM for ObaO) in a buffer containing 25 mM HEPES pH 7.5, 50 mM NaCl, 40 mM MgCl2, 30 mM KCl, 0.01 mg/mL bovine serum albumin (BSA), and 0.004% Tween-20 at 37 °C for 4 h and then mixed 1:1 with a substrate mixture containing 4 μM ATP, 40 μM L-threonine, 25 mM HEPES pH 7.5, 50 mM NaCl, 40 mM MgCl2, 30 mM KCl, 0.01 mg/mL BSA, and 0.004% Tween-20. The ATP hydrolysis reaction was performed at 37 °C for 4 h.
(§3) After incubation, the detection solution from the Kinase-Glo® luminescent kit (Promega, USA) was added to the reaction system at a 1:1 ratio, and the mixture was gently shaken for 10 min. The chemiluminescence signal was measured using a microplate reader (Tecan, USA). All experiments were performed in four replicates. The data were processed using GraphPad Prism 8 software.

EcThrRS_G463S [4] = biological target: T2, EcThrRS_G463S; experiment: ATP hydrolysis assay; type: biochemical
Method: as §2, §3

EcThrRS_WT = biological target: T3, EcThrRS_WT (Escherichia coli, UniProt P0A8M3); experiment: ATP hydrolysis assay; type: biochemical; details: for ATP hydrolysis activity, inhibitory curve data point: BN, replicates, sheet Fig.7d
T3 construct: The E. coli ThrRS (residues 242-642, Supplementary Note 1) wild type; 6xHis (C); made in house; host or cells: E. coli BL21 (DE3)
Method: as §2, §3

EcThrRS_G463S [5] = biological target: T2, EcThrRS_G463S; experiment: ATP hydrolysis assay; type: biochemical; details: BN, replicates, sheet Fig.7d
[6] = 2 μM protein, 20 μM compound, mean n = 4, read-out: ΔTm (increase of Tm)

T1 sequence (P0A8M3 242-642 G463A): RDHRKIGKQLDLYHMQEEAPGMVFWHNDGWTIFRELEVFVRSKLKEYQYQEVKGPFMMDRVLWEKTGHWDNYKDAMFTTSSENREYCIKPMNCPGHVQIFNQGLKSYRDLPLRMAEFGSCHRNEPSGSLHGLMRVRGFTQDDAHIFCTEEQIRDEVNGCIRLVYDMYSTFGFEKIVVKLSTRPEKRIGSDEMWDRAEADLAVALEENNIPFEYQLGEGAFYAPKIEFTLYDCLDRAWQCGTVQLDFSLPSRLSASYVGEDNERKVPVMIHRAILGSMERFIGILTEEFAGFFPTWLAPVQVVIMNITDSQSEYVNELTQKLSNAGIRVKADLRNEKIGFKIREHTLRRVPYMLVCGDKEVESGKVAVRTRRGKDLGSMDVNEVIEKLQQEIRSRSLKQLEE
T3 sequence (P0A8M3 242-642): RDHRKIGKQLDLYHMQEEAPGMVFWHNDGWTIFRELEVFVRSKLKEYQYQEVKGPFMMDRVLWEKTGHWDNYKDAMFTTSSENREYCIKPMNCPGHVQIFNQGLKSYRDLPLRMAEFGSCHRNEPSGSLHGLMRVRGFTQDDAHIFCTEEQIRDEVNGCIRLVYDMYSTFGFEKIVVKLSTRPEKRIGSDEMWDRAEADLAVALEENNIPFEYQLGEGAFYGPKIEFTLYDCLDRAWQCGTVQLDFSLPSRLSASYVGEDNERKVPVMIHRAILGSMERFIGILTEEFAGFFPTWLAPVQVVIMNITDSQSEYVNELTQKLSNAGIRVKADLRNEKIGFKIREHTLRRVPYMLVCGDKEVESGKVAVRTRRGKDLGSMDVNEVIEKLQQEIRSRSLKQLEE
T2 sequence (P0A8M3 242-642 G463S): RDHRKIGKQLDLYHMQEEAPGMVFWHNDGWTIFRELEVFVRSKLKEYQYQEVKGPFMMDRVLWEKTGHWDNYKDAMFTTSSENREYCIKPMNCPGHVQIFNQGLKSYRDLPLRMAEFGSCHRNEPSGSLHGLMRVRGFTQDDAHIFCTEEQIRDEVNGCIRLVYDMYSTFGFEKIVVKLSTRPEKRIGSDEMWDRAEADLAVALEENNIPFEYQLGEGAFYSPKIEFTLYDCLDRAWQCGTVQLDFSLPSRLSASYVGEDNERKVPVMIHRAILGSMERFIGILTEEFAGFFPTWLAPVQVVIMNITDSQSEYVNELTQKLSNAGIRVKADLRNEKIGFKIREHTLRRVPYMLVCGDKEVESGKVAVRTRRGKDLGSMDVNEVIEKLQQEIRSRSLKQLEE

SMILES: C[C@@H]1C[C@H](C)C[C@H](C)[C@@H](O)CC(=O)O[C@H]([C@@H]2CCC[C@H]2C(=O)O)C/C=C/C=C(/C#N)[C@H](O)[C@@H](C)C1 [BN, borrelidin]
- ΔTm at 20 µM (EcThrRS_G463A [1]; [6]): 19.1 °C
- ΔTm at 20 µM (EcThrRS_G463A [1]; source data sheet Fig.7c, ThrRS_G463A, read-out: ΔTm, single replicates): 19.1 °C
- ΔTm at 20 µM (EcThrRS_G463S [2]; [6]): 17.4 °C
- ΔTm at 20 µM (EcThrRS_G463S [2]; source data sheet Fig.7c, ThrRS_G463S, read-out: ΔTm, single replicates): 17.3 °C
- decrease of inhibitory effect vs EcThrRS_WT (EcThrRS_G463A [3]; 2 μM ATP and 20 μM L-Thr): more than 20 fold
- ATP hydrolysis activity, inhibitory curve data point (EcThrRS_G463A [3]; Log10 Conc. 1.477, G463A): 95.000 and 86.999 and 114.196 and 92.149
- ATP hydrolysis activity, inhibitory curve data point (EcThrRS_G463A [3]; Log10 Conc. 2.000, G463A): 87.423 and 89.051 and 94.722 and 94.776
- ATP hydrolysis activity, inhibitory curve data point (EcThrRS_G463A [3]; Log10 Conc. 2.477, G463A): 87.400 and 82.253 and 93.320 and 93.112
- ATP hydrolysis activity, inhibitory curve data point (EcThrRS_G463A [3]; Log10 Conc. 3.000, G463A): 81.982 and 81.596 and 85.557 and 86.320
- ATP hydrolysis activity, inhibitory curve data point (EcThrRS_G463A [3]; Log10 Conc. 3.477, G463A): 63.653 and 64.234 and 69.634 and 68.650
- ATP hydrolysis activity, inhibitory curve data point (EcThrRS_G463A [3]; Log10 Conc. 4.000, G463A): 68.712 and 73.186 and 66.040 and 70.648
- decrease of inhibitory effect vs EcThrRS_WT (EcThrRS_G463S [4]; 2 μM ATP and 20 μM L-Thr): more than 20 fold
- ATP hydrolysis activity, inhibitory curve data point (EcThrRS_G463S [4]; BN, Log10 Conc. 3.477, G463S, replicates, sheet Fig.7d): 72.021 and 67.252 and 61.642 and 63.732
- ATP hydrolysis activity, inhibitory curve data point (EcThrRS_WT; Log10 Conc. 1.477, WT): 101.322 and 78.096 and 79.643 and 84.982
- ATP hydrolysis activity, inhibitory curve data point (EcThrRS_WT; Log10 Conc. 2.000, WT): 101.576 and 82.194 and 100.286 and 100.117
- ATP hydrolysis activity, inhibitory curve data point (EcThrRS_WT; Log10 Conc. 2.477, WT): 72.956 and 78.844 and 97.078 and 88.856
- ATP hydrolysis activity, inhibitory curve data point (EcThrRS_WT; Log10 Conc. 3.000, WT): -7.239 and -12.609 and 12.089 and 13.133
- ATP hydrolysis activity, inhibitory curve data point (EcThrRS_WT; Log10 Conc. 3.477, WT): -29.715 and 1.779 and -2.712 and 18.045
- ATP hydrolysis activity, inhibitory curve data point (EcThrRS_WT; Log10 Conc. 4.000, WT): -14.823 and -17.346 and -12.025 and -9.555
- IC50 (EcThrRS_WT; in the presence of 2 μM ATP and 20 μM L-Thr): 0.559 µM
- ATP hydrolysis activity, inhibitory curve data point (EcThrRS_G463S [5]; Log10 Conc. 1.477, G463S): 98.112 and 97.245 and 94.519 and 96.966
- ATP hydrolysis activity, inhibitory curve data point (EcThrRS_G463S [5]; Log10 Conc. 2.000, G463S): 96.048 and 91.632 and 90.284 and 92.020
- ATP hydrolysis activity, inhibitory curve data point (EcThrRS_G463S [5]; Log10 Conc. 2.477, G463S): 91.563 and 88.959 and 88.970 and 89.661
- ATP hydrolysis activity, inhibitory curve data point (EcThrRS_G463S [5]; Log10 Conc. 3.000, G463S): 84.928 and 77.254 and 80.440 and 82.267
- ATP hydrolysis activity, inhibitory curve data point (EcThrRS_G463S [5]; Log10 Conc. 4.000, G463S): 53.455 and 58.497 and 57.343 and 60.957
